Target: T1, JAK1 kinase (Homo sapiens, UniProt P23458)
T1 construct: purchased Invitrogen PV4744
Assay: In vitro inhibitory activity on JAK1 kinase (ADP-Glo Kinase Assay)
Type: biochemical
Settings: JAK1 kinase 4 nM, 1 mM ATP
Description: Test Example 1: Determination of In Vitro Inhibitory Activity of the Compounds of the Present Invention on JAK1 Kinase Experimental materials: JAK1 kinase (Invitrogen, PV4744), ATP (Promega, V915B), ADP-Glo Kinase Assay (Promega, V9101), IRS1 (Signalchem, 140-58-1000). Sample preparation: The compounds of the present invention and the control product were dissolved in DMSO solvent respectively to formulate into 10 mM initial liquid. The maximum concentration of the compound was 10 μM, 3-fold dilution, 10 concentration gradients, and duplicate wells for each concentration gradient. Experimental processs: 0.1 μL of the compound to be tested was transferred into a 384 reaction plate (PE, 6007290) via Echo and centrifuged at 1000 rpm/min for 1 min. 5 μL JAK1 kinase (final concentration of 4 nM) was transferred into the 384 reaction plate, which was then centrifuged at 1000 rpm/min for 1 min, and incubated at 25° C. for 15 min. 5 μL substrate mixture (1 mM ATP, IRS1 0.05 mg/ml, kinase buffer solution) was transferred into the 384 reaction plate, which was then centrifuged at 1000 rpm/min for 1 min, and incubated at 25° C. for 60 min. 10 μL ADP-Glo was transferred into the 384 reaction plate, which was then centrifuged at 1000 rpm/min for 1 min, and incubated at 25° C. for 40 min. 20 μL test solution was transferred into the 384 reaction plate, which was then centrifuged at 1000 rpm/min for 1 min and incubated at 25° C. for 40 min. RLU (Relative luminescence unit) signal was read by using an Envision multifunctional plate reader. The signal intensity was used to characterize the degree of the kinase activity. […] IC50 value of 0-100 nM is shown as A, IC50 value of 100-300 nM is shown as B, IC50 value of 300-1000 nM is shown as C, and IC50 value which is greater than 1000 nM is shown as D. NT means not tested.

T1 sequence (P23458 866-1154 limits assumed): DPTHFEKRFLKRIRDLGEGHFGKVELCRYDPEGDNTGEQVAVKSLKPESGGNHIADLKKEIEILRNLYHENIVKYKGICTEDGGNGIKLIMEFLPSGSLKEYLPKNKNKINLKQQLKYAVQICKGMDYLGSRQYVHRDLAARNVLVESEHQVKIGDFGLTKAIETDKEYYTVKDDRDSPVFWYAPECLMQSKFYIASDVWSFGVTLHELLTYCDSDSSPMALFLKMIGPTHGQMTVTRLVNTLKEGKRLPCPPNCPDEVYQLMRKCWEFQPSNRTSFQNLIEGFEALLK

Row | SMILES | IC50
1 | Cn1cc(Nc2nccc(C3=CC4CCC(C3)N4C(=O)CC(F)(F)F)n2)cn1 (stereo not drawn) [Compound 65, 3,3,3-trifluoro-1-(3-(2-((1-methyl-1H-pyrazol-4-yl)amino)pyrimidin-4-yl)-8-azabicyclo[3.2.1]oct-2-en-8-yl)-1-acetone] | 100 to 300 nM
2 | Cc1cnc(Nc2cnn(CC(C)(C)O)c2)nc1C1=CC2CCC(C1)N2C(=O)NCC(F)(F)F (stereo not drawn) [Compound 29, 3-(2-((1-(2-hydroxy-2-methylpropyl)-1H-pyrazol-4-yl)amino)-5-methylpyrimidin-4-yl)-N-(2,2,2-trifluoroethyl)-8-azabicyclo[3.2.1]oct-2-ene-8-carboxamide] | < 100 nM
3 | Cc1cnc(Nc2cnn(C)c2)nc1C1=C[C@H]2CC[C@@H](C1)N2C(=O)NCC(F)(F)F [Compound 19-b, (1R,5S)-3-(5-methyl-2-((1-methyl-1H-pyrazol-4-yl)amino)pyrimidin-4-yl)-N-(2,2,2-trifluoroethyl)-8-azabicyclo[3.2.1]oct-2-ene-8-carboxamide] | < 100 nM
4 | Cn1cc(Nc2nccc(C3=CC4CCC(C3)N4CC3(C)COC3)n2)cn1 (stereo not drawn) [Compound 87, N-(1-methyl-1H-pyrazol-4-yl)-4-(8-((3-methyloxetan-3-yl)methyl)-8-azabicyclo[3.2.1]oct-2-en-3-yl)pyrimidin-2-amine] | > 1000 nM
5 | Cn1cc(Nc2nccc(C3=CC4CCC(C3)N4C(=O)C3CC(CO)C3)n2)cn1 (stereo not drawn) [Compound 81, (3-(hydroxymethyl)cyclobutyl)(3-(2-((1-methyl-1H-pyrazol-4-yl)amino)pyrimidin-4-yl)-8-azabicyclo[3.2.1]oct-2-en-8-yl)methanone] | > 1000 nM
6 | CCn1cc(Nc2nccc(C3=CC4CCC(C3)N4C(=O)[C@@H]3CC3(F)F)n2)cn1 (stereo partly drawn) [Compound 45, ((S)-2,2-Difluorocyclopropyl)(3-(2-((1-ethyl-1H-pyrazol-4-yl)amino)pyrimidin-4-yl)-8-azabicyclo[3.2.1]oct-2-en-8-yl)methanone] | 100 to 300 nM
7 | Cc1cnc(Nc2cnn(CC(C)(C)O)c2)nc1C1=C[C@@H]2CC[C@H](C1)N2C(=O)NCC(F)(F)F (single isomer, unassigned) [Compound 29-a] | < 100 nM
8 | Cc1cnc(Nc2cnn(C)c2)nc1C1=CC2CCC(C1)N2C(=O)[C@@H]1CC1(F)F (stereo partly drawn) [Compound 22, ((S)-2,2-difluorocyclopropyl)(3-(5-methyl-2-((1-methyl-1H-pyrazol-4-yl)amino)pyrimidin-4-yl)-8-azabicyclo[3.2.1]oct-2-en-8-yl)methanone] | < 100 nM
9 | Cn1cc(Nc2nccc(C3=CC4CCC(C3)N4C(=O)C3(C#N)CCOCC3)n2)cn1 (stereo not drawn) [Compound 64, 4-(3-(2-((1-methyl-1H-pyrazol-4-yl)amino)pyrimidin-4-yl)-8-azabicyclo[3.2.1]oct-2-ene-8-carbonyl)tetrahydro-2H-pyran-4-cyano] | 300 to 1000 nM
10 | CC(C#N)C(=O)N1C2C=C(c3ccnc(Nc4cnn(C)c4)n3)CC1CC2 (stereo not drawn) [Compound 62, 2-methyl-3-(3-(2-((1-methyl-1H-pyrazol-4-yl)amino)pyrimidin-4-yl)-8-azabicyclo[3.2.1]oct-2-en-8-yl)-3-oxopropionitrile] | 100 to 300 nM
11 | Cc1cnc(Nc2cn(C)nc2C)nc1C1=C[C@H]2CC[C@@H](C1)N2C(=O)NCC(F)(F)F [Compound 26-b, (1R,5S)-3-(2-((1,3-dimethyl-1H-pyrazol-4-yl)amino)-5-methylpyrimidin-4-yl)-N-(2,2,2-trifluoroethyl)-8-azabicyclo[3.2.1]oct-2-ene-8-carboxamide] | < 100 nM
12 | Cn1cc(Nc2ncc(S(C)(=O)=O)c(C3=CC4CCC(C3)N4C(=O)NCC(F)(F)F)n2)cn1 (stereo not drawn) [Compound 34, 3-(2-((1-methyl-1H-pyrazol-4-yl)amino)-5-(methylsulfonyl)pyrimidin-4-yl)-N-(2,2,2-trifluoroethyl)-8-azabicyclo[3.2.1]oct-2-ene-8-carboxamide] | > 1000 nM
13 | O=C(NCC(F)(F)F)N1C2C=C(c3ccnc(Nc4cnn(C5CC5)c4)n3)CC1CC2 (stereo not drawn) [Compound 43, 3-(2-((1-cyclopropyl-1H-pyrazol-4-yl)amino)pyrimidin-4-yl)-N-(2,2,2-trifluoroethyl)-8-azabicyclo[3.2.1]oct-2-ene-8-carboxamide] | < 100 nM
14 | Cc1cnc(Nc2cnn(C)c2C)nc1C1=CC2CCC(C1)N2C(=O)NCC(F)(F)F (stereo not drawn) [Compound 27, 3-(2-((1,5-dimethyl-1H-pyrazol-4-yl)amino)-5-methylpyrimidin-4-yl)-N-(2,2,2-trifluoroethyl)-8-azabicyclo[3.2.1]oct-2-ene-8-carboxamide] | 300 to 1000 nM
15 | Cc1cnc(Nc2cnn(CC(C)(C)O)c2)nc1C1=C[C@H]2CC[C@@H](C1)N2C(=O)NCC(F)(F)F [Compound 29-b, (1R,5S)-3-(2-((1-(2-Hydroxy-2-methylpropyl)-1H-pyrazol-4-yl)amino)-5-methylpyrimidin-4-yl)-N-(2,2,2-trifluoroethyl)-8-azabicyclo[3.2.1]oct-2-ene-8-carboxamide] | < 100 nM
16 | Cn1cc(Nc2nccc(C3=CC4CCC(C3)N4C(=O)NC3COC3)n2)cn1 (stereo not drawn) [Compound 15, 3-(2-((1-methyl-1H-pyrazol-4-yl)amino)pyrimidin-4-yl)-N-(oxetan-3-yl)-8-azabicyclo[3.2.1]oct-2-ene-8-carboxamide] | 300 to 1000 nM
17 | Cn1cc(Nc2nccc(C3=CC4CCC(C3)N4C(=O)NCC(F)F)n2)cn1 (stereo not drawn) [Compound 44, N-(2,2-difluoroethyl)-3-(2-((1-methyl-1H-pyrazol-4-yl)amino)pyrimidin-4-yl)-8-azabicyclo[3.2.1]oct-2-ene-8-carboxamide] | < 100 nM
18 | Cc1cnc(Nc2cnn(C3CC3)c2)nc1C1=CC2CCC(C1)N2C(=O)NCC(F)(F)F (stereo not drawn) [Compound 31, 3-(2-((1-Cyclopropyl-1H-pyrazol-4-yl)amino)-5-methylpyrimidin-4-yl)-N-(2,2,2-trifluoroethyl)-8-azabicyclo[3.2.1]oct-2-ene-8-carboxamide] | < 100 nM

The next lines start with the values.

Row | IC50 | SMILES
19 | < 100 nM | Cc1cnc(Nc2cnn(CCO)c2)nc1C1=CC2CCC(C1)N2C(=O)NCC(F)(F)F (stereo not drawn) [Compound 28, 3-(2-((1-(2-hydroxyethyl)-1H-pyrazol-4-yl)amino)-5-methylpyrimidin-4-yl)-N-(2,2,2-trifluoroethyl)-8-azabicyclo[3.2.1]oct-2-ene-8-carboxamide]
20 | > 1000 nM | NC(=O)C1(n2cc(Nc3nccc(C4=CC5CCC(C4)N5C(=O)[C@@H]4CC4(F)F)n3)cn2)CC1 (stereo partly drawn) [Compound 39, 1-(4-((4-(8-((S)-2,2-Difluorocyclopropane-1-carbonyl)-8-azabicyclo[3.2.1]oct-2-en-3-yl)pyrimidin-2-yl)amino)-1H-pyrazol-1-yl)cyclopropane-1-carboxamide]
21 | < 100 nM | Cn1cc(Nc2ncc(Cl)c(C3=C[C@@H]4CC[C@H](C3)N4C(=O)[C@@H]3CC3(F)F)n2)cn1 [Compound 23-a, ((1S,5R)-3-(5-chloro-2-((1-methyl-1H-pyrazol-4-yl)amino)pyrimidin-4-yl)-8-azabicyclo[3.2.1]oct-2-en-8-yl)((S)-2,2-difluorocyclopropyl)methanone]
22 | > 1000 nM | Cn1cc(Nc2nccc(C3=CC4CCC(C3)N4C(=O)C34CC(C3)C4)n2)cn1 (stereo not drawn) [Compound 72, bicyclo[1.1.1]pentan-1-yl(3-(2-((1-methyl-1H-pyrazol-4-yl)amino)pyrimidin-4-yl)-8-azabicyclo[3.2.1]oct-2-en-8-yl)methanone]
23 | > 1000 nM | Cn1cc(Nc2nccc(C3=CC4CCC(C3)N4C(=O)N3CCC(C(F)(F)F)C3)n2)cn1 (stereo not drawn) [Compound 9, (3-(2-((1-methyl-1H-pyrazol-4-yl)amino)pyrimidin-4-yl)-8-azabicyclo[3.2.1]oct-2-en-8-yl)(3-(trifluoromethyl)pyrrolidin-1-yl)methanone]
24 | < 100 nM | Cn1cc(Nc2nccc(C3=CC4CCC(C3)N4C(=O)NC3(C(F)(F)F)CC3)n2)cn1 (stereo not drawn) [Compound 33, 3-(2-((1-methyl-1H-pyrazol-4-yl)amino)pyrimidin-4-yl)-N-(1-(trifluoromethyl)cyclopropyl)-8-azabicyclo[3.2.1]oct-2-ene-8-carboxamide]
25 | 100 to 300 nM | Cc1cnc(Nc2cnn(C)c2Cl)nc1C1=CC2CCC(C1)N2C(=O)NCC(F)(F)F (stereo not drawn) [Compound 32, 3-(2-((5-chloro-1-methyl-1H-pyrazol-4-yl)amino)-5-methylpyrimidin-4-yl)-N-(2,2,2-trifluoroethyl)-8-azabicyclo[3.2.1]oct-2-ene-8-carboxamide]
26 | > 1000 nM | Cn1cc(Nc2nccc(C3=CC4CCC(C3)N4C(=O)c3ccc(C(F)(F)F)cn3)n2)cn1 (stereo not drawn) [Compound 17, (3-(2-((1-methyl-1H-pyrazol-4-yl)amino)pyrimidin-4-yl)-8-azabicyclo[3.2.1]oct-2-en-8-yl)(5-(trifluoromethyl)pyridin-2-yl)methanone]
27 | > 1000 nM | Cn1cc(Nc2nccc(C3=CC4CCC(C3)N4C3(CC#N)CN(C(=O)[C@@H]4CC4(F)F)C3)n2)cn1 (stereo partly drawn) [Compound 85, 2-(1-((S)-2,2-difluorocyclopropane-1-carbonyl)-3-(3-(2-((1-methyl-1H-pyrazol-4-yl)amino)pyrimidin-4-yl)-8-azabicyclo[3.2.1]oct-2-en-8-yl)azetidin-3-yl)acetonitrile]

Source: patent publication US20220348572A1, “BRIDGED HETEROCYCLYL-SUBSTITUTED PYRIMIDINE COMPOUND, PREPARATION METHOD THEREFOR, AND PHARMACEUTICAL USE THEREOF” (The National Institutes of Pharmaceutical R&D Co., Ltd., priority 2019, published 2022)
